According to publication PMC11763059, “GENI as an AMPK Activator Binds α and γ Subunits and Improves the Memory Dysfunction of Alzheimer’s Disease Mouse Models via Autophagy and Neuroprotection” (Antioxidants, 2025):

How the values were obtained:
[1] = system: AMPK/mTOR/ULK1/LC3B signaling pathway; test: Western blot of autophagy signaling pathway proteins; type: cell-based; conditions: after giving GENI; PC12 cells and mouse hippocampus and cerebral cortex (Extended Data Figure S3a–f)
Protocol: Western blot analysis for p-AMPK α, AMPK α, p-mTOR, mTOR, p-ULK1, ULK1, and LC3-I/II was conducted according to the information described in the materials and methods section of Supplementary Information.
1.3. Western blot analysis.
For PC12 cell samples, we seeded 2 × 10^6 PC12 cells in each 60 mm dish containing 5 mL of DMEM and incubated the dish for 24 h. For the dose-dependent experiment of GENI, GENI (1, 3 and 10 μM) was added to the dishes and incubated for a period of time (2 hours for p-AMPK α, AMPK α, 48 hours for p-mTOR, mTOR and p-ULK1, ULK1; 8 hours for LC3-I/II). Cells were then collected, lysed using RAPI lysis buffer and centrifuged. The supernatants of each group were used as protein samples. […]
The supernatants of each group were used as protein samples. For animal samples, an appropriate amount of tissue, such as cerebral cortex and hippocampus (50–100 mg), of each group was weighed, and we added lysis buffer with 1:9 ratios. After grinding and centrifuging, the supernatants of each group were used as protein samples. The protein concentration was measured with a BCA assay kit (Beijing Cowin Biotech Company, Beijing, China). Sodium dodecyl sulphate polyacrylamide gel electrophoresis (SDS-PAGE) was used to separate proteins (15 μg), which were transferred to PVDF membranes. The membrane was incubated with primary and secondary antibodies (Supplementary Table S5 for details). Antigens were visualised using a high-sensitivity chemiluminescence detection kit (Beijing Cowin Biotech Company, Beijing, China). Bands were quantitatively measured using ImageJ software (National Institutes of Health, Bethesda, MD, USA).

[2] = system: MAPK; test: Cellular thermal shift assay (CETSA) in PC12 cells, MAPK; type: binding; conditions: 10 μM GENI 2 h, 60 °C to 80 °C
Protocol: In a 60 mm dish containing 5 mL of DMEM, 2 × 10^6 cells were added and incubated for 24 h. In each plate, 10 μM GENI was added and incubated for 2 h. Cells were harvested and heated at a temperature ranging from 60 °C to 80 °C for PC12 cell samples. We obtained a certain amount of cerebral cortex and hippocampus samples, which were added with PBS and ground. After centrifugation, the supernatant was used as a sample, and we measured the protein concentration with a BCA kit (CoWin Biotech Co., Ltd., Taizhou, Jiangsu, China). The protein of the cerebral cortex or hippocampus was incubated with 10 μM GENI at 37 °C for 2 h and heated from 65 °C to 100 °C for the cerebral cortex sample but 43 °C to 67 °C and 65 °C to 100 °C for the hippocampus sample. Equal volumes of supernatant heated at each temperature point for the control and treatment groups were used for Western blot analysis with the antibody for specific proteins.

[3] = target: T1, AMPK-s2 (α subunit- D157A) (Rattus norvegicus, UniProt P54645+P80385, D168A); test: SPR analysis, AMPK mutant s2; type: binding
T1 construct: His (N); made in house

[4] = system: BV-2 microglia; test: BV-2 microglial activity assay (Iba1 staining); type: cell-based, murine; conditions: GENI 1, 3, and 10 μM, LPS 1 μg/mL
Protocol: BV-2 cells (2.5 × 10^4) were seeded in 24-well plates. […] We then removed the medium, washed the cells three times with PBS, and fixed the cells with 4% paraformaldehyde (500 μL/well) for 20 min at room temperature. We washed the cells three times with PBS and added Quick Block^TM immunostaining blocking solution (500 μL/well) to block for 60 min. After removing the blocking solution, we added 200 μL of the primary antibody (Anti-Iba1 rabbit monoclonal antibody, 1:1000, abcam178847) to each well and incubated the samples overnight at 4 °C. The next day, the supernatant was discarded, washed three times with PBS, and incubated with the secondary antibody Cart anti-rabbit IgG (1:1000) at room temperature for 1 h. Nuclei were stained with DAPI (250 μL/well) for 5 min, and the fluorescence was observed under a fluorescent inverted microscope (Olympus IX53, Tokyo, Japan).

[5] = target: T2, AMPK-WT (His-tagged AMPK containing α1β1γ1 protein) (Rattus norvegicus, UniProt P54645+P80385); test: SPR analysis of binding to purified wild-type AMPK
T2 construct: His (N); made in house
Protocol: Mammalian AMPK subunits (His-α1, β1, and γ1) were cloned into a pET-3d vector, and protein expression and purification were similar to the literature.
SPR analysis was performed with a Biacore T200 instrument (GE Healthcare). Firstly, the purred His-tagged AMPK containing α1β1γ1 protein was captured onto an activated carboxymethylated 5 (CM5) chip using amine coupling to levels ranging from 4000 RU to 6000 RU. Secondly, GENI was dissolved in PBS-P buffer solution (0.05% (v/v) Tween 20 and PBS), and the concentration of GENI was 64 μM. […] The sample was filtered by pumping through a […] membrane. A gradient concentration of GENI was injected at a flow rate of 30 μL/min in a running buffer (0.05% (v/v) Tween 20 and PBS). The data were analyzed with Biacore evaluation software (T200 version 2.0) and fitted to the 1:1 Langmuir binding model, and the kinetic parameters were derived.

T2 sequence (P54645 13-559 limits assumed): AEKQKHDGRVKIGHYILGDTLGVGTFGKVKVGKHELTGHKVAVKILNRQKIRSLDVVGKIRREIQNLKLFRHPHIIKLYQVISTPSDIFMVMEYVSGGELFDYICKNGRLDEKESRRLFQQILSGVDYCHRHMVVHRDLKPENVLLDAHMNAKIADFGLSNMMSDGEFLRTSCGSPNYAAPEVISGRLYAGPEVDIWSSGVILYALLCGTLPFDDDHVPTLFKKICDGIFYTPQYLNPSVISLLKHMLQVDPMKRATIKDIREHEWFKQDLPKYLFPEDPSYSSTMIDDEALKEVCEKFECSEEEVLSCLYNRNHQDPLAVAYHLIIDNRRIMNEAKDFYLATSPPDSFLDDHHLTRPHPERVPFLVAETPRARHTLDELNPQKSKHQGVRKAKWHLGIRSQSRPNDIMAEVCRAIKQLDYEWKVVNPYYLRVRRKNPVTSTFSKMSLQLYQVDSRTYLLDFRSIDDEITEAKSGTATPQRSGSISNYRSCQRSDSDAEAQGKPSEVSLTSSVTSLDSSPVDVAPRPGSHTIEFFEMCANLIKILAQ
T2 sequence (P80386 whole entry partner): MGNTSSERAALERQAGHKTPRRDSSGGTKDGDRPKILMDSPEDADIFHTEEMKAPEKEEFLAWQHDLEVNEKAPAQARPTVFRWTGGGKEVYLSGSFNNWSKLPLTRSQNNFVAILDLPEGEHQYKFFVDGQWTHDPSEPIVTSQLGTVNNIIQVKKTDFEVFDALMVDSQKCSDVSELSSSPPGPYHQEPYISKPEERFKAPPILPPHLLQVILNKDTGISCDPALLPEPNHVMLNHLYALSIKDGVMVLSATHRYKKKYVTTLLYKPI
T2 sequence (P80385 whole entry): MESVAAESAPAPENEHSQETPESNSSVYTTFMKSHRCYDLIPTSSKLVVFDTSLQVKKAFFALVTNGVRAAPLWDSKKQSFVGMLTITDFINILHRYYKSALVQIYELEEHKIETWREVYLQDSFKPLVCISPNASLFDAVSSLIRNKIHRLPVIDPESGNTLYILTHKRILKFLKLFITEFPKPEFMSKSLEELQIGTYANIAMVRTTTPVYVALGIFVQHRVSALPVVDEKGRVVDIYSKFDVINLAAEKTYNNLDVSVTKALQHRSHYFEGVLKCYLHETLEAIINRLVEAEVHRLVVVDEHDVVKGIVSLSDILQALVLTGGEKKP
T1 sequence (P54645 13-559 D168A limits assumed): as the sequence (P54645 13-559 limits assumed) above, with D156A counted along it
T1 sequence (P80386 whole entry partner): as the sequence (P80386 whole entry partner) above
T1 sequence (P80385 whole entry): as the sequence (P80385 whole entry) above

## CC(C)CCOC(=O)C1=CO[C@@H](O[C@@H]2O[C@H](CO)[C@@H](O)[C@H](O)[C@H]2O)C2C(CO)=CCC12 (stereo partly shown) [GENI, Geniposidic 4-isoamyl ester]
[1]
  LC3B at protein level: increase
  phosphorylate-AMPK at protein level: increase
  phosphorylate-ULK1 at protein level: increase
  phosphorylate-mTOR at protein level: reduction
[2]
  thermal stability of MAPK (CETSA): not obvious
[3]; D157 replaced with A157
  dose-dependent response in SPR: No significant dose-dependent response
[3]; SPR, association rate, read-out: Ka
  kon: 9120 M⁻¹ s⁻¹
[4]
  LPS-induced activation in BV-2 microglia: inhibiting
[5]; 1:1 Langmuir binding model
  Kd: 1070 nM
[5]; association rate, read-out: Ka
  kon: 2320 M⁻¹ s⁻¹
